Values after ≈ are worked out from the molar mass of the structure shown. Read-outs that look alike come from different tables or passages of the source.
What was measured:
S. aureus ATCC 29213 = assay: MIC against S. aureus ATCC 29213; assay type: cell-based, Staphylococcus aureus
Description: (§1) The microbiological activity of clindamycin analogs was evaluated by measuring the minimum inhibitory concentrations (MIC) of each compound against Staphylococcus aureus (S. aureus) and Propionibacterium acnes (P. acnes). These two microorganisms were selected, as they are commonly known to be the contributing factors for acne. The compounds evaluated were the following: • a. […] Clindamycin sulfone (CSO2) and its salts • d. Clindamycin phosphate • e.

P. acnes ATCC 11827 = assay: MIC against P. acnes ATCC 11827; assay type: cell-based, Propionibacterium acnes
Description: as §1

[1] = Stability studies with benzoyl peroxide in buffer solutions; assay type: physicochemical; conditions: 1% analog with 5% BPO, pH 3 buffer, 50° C.
Description: The concentrations of each of the clindamycin analogs and BPO in the mixtures were 1% (w/w) and 5% (w/w), respectively.
Samples were prepared by dissolving each of the clindamycin analogs and suspending the BPO powder in the buffer solutions of different pHs. Samples were placed either at RT or at 50° C. Samples were pulled at time intervals and tested for the appropriate clindamycin analog and pH.
The figures show the plots of the percent remaining (% of initial) of the clindamycin analog versus time. The percent of initial is obtained by normalizing the concentration at each time point to the initial concentration.

P. acnes ATCC 1127 = assay: MIC against P. acnes ATCC 1127; assay type: cell-based, Propionibacterium acnes; conditions: Cutibacterium acnes, ATCC1127
Description: as §1

S. aureus ATCC 6538 = assay: MIC against S. aureus ATCC 6538; assay type: cell-based; conditions: Staphylococcus aureus, ATCC6538
Description: as §1

[2] = Staphylococcus aureus, ATCC29213, read-out: MIC
[3] = Cutibacterium acnes, ATCC11827, read-out: MIC

| Structure (SMILES) | MIC (S. aureus ATCC 29213) [µg/mL] | MIC (P. acnes ATCC 11827) [µg/mL] | other results |
| --- | --- | --- | --- |
| CCCC1CC(C(=O)NC(C(C)Cl)C2OC(S(C)(=O)=O)C(O)C(O)C2O)N(C)C1.Cl (centres unmarked) [CSO2 HCl] | 1 | 0.5 |  |
| CCCC1CC(C(=O)NC(C(C)Cl)C2OC(S(C)(=O)=O)C(O)C(O)C2O)N(C)C1.O=S(=O)(O)O (centres unmarked) [CSO2 sulfate] | 1 | 0.5 |  |
| CCC[C@@H]1CC(C(=O)NC(C(C)Cl)[C@H]2O[C@H](S(C)(=O)=O)[C@H](O)[C@@H](O)[C@H]2O)N(C)C1 (some centres unmarked) [CSO2, Clindamycin sulfone] |  |  | MIC (S. aureus ATCC 29213; [2]): 1 to 2 µg/mL (≈ 2.19 to 4.38 µM); MIC (P. acnes ATCC 11827; [3]): 0.5 to 1 µg/mL (≈ 1.09 to 2.19 µM); remained in the solution (% of initial) ([1]; after 8 weeks of storage): about 85%; remaining in the samples (% of initial) ([1]; after 12 weeks of storage): about 70% |
| CCCC1CC(C(=O)NC(C(C)Cl)C2OC([S+](C)[O-])C(O)C(O)C2O)N(C)C1.O=C(O)c1ccccc1 (centres unmarked) [CSO B benzoate] | 2 | 0.5 |  |
| CCCC1CC(C(=O)NC(C(C)Cl)C2OC([S+](C)[O-])C(O)C(O)C2O)N(C)C1.O=C(O)CC(O)(CC(=O)O)C(=O)O (centres unmarked) [CSO B citrate] | 2 | 0.5 |  |
| CCC[C@@H]1C[C@@H](C(=O)N[C@@H]([C@H]2O[C@H](SC)[C@H](OP(=O)(O)O)[C@@H](O)[C@H]2O)[C@H](C)Cl)N(C)C1 [Clindamycin phosphate USP, Clindamycin phosphate, reference compound] |  |  | MIC (S. aureus ATCC 29213; [2]): 16 to 32 µg/mL; MIC (P. acnes ATCC 11827; [3]): 2 to 4 µg/mL; MIC (P. acnes ATCC 1127): 200 µg/mL; MIC (S. aureus ATCC 6538): 200 µg/mL |
| CC[C@H]1OC(=O)[C@H](C)[C@@H](O[C@H]2C[C@@](C)(OC)[C@@H](O)[C@H](C)O2)[C@H](C)[C@@H](O[C@@H]2O[C@H](C)C[C@H](N(C)C)[C@H]2O)[C@](C)(O)C[C@@H](C)C(=O)[C@H](C)[C@@H](O)[C@]1(C)O [Erythromycin USP, Erythromycin, reference compound] |  |  | MIC (S. aureus ATCC 29213; [2]): 0.25 to 0.5 µg/mL (≈ 0.341 to 0.681 µM); MIC (P. acnes ATCC 11827; [3]): 0.062 µg/mL (≈ 0.0845 µM); MIC (P. acnes ATCC 1127): 1.6 µg/mL (≈ 2.18 µM); MIC (S. aureus ATCC 6538): < 0.8 µg/mL |

Continued, in another order:

| MIC (S. aureus ATCC 29213) [µg/mL] | MIC (P. acnes ATCC 11827) [µg/mL] | Structure (SMILES) | other results |
| --- | --- | --- | --- |
| 16 | 8 | CCC[C@@H]1C[C@@H](C(=O)N[C@@H]([C@H]2O[C@H]([S+](C)[O-])[C@H](O)[C@@H](O)[C@H]2O)[C@H](C)Cl)N(C)C1.Cl (some centres unmarked) [CSO A HCl] |  |
| 16 | 8 | CCCC1CC(C(=O)NC(C(C)Cl)C2OC([S+](C)[O-])C(O)C(O)C2O)N(C)C1.O=C(O)C=CC(=O)O (centres unmarked) [CSO A fumarate] |  |
| 16 | 16 | CCCC1CC(C(=O)NC(C(C)Cl)C2OC([S+](C)[O-])C(O)C(O)C2O)N(C)C1.O=C(O)C=CC(=O)O (centres unmarked) [CSO A maleate] |  |
| 16 | 16 | CCCC1CC(C(=O)NC(C(C)Cl)C2OC([S+](C)[O-])C(O)C(O)C2O)N(C)C1.O=C(O)CCC(=O)O (centres unmarked) [CSO A succinate] |  |
| 2 | 0.5 | CCCC1CC(C(=O)NC(C(C)Cl)C2OC([S+](C)[O-])C(O)C(O)C2O)N(C)C1.Cl (centres unmarked) [CSO B HCl] |  |
| 2 | 0.5 | CCCC1CC(C(=O)NC(C(C)Cl)C2OC([S+](C)[O-])C(O)C(O)C2O)N(C)C1.O=C(O)C=CC(=O)O (centres unmarked) [CSO B fumarate] |  |

Reference: patent US20080033031A1, “ANTIBIOTIC COMPOUNDS, COMPOSITIONS AND METHODS OF TREATMENT” (priority 2004, published 2008)
